pEC50: −log10 of the molar value.

The first experiment concerns primary human endothelial cells expressing luciferase under the control of the KLF2 promoter. Kind of experiment: KLF2 Induction Cell Based Bioassay (luciferase reporter). As to conditions: Bioactivity of stereoisomers: S isomer. An excerpt: In endothelial cell culture media, a stock of the highest working concentration was made at no more than 1% DMSO vehicle. The working stock was then serially diluted 1:2 to make an 11-point concentration response curve. Included in the 96-well plate were 2 reference compounds with known potencies. A DMSO column was included in the 96-well plate at the highest percent vehicle of the working stocks. The 96-well cell culture plate of primary human endothelial cells expressing luciferase under the control of the KLF2 promoter was dosed with 200 μL per well of the dilution series as well as the DMSO control column. The assay plate was incubated at 37° C. for 24 hours. The supernatant was collected at 24 hours.
20 μL of the supernatant was then placed in a 384-well plate with optical duplicates. The corners of the plate received 20 μL of the Gaussia Luciferase Enzyme positive control, as well as 20 μL of the 50 μM Coelenterizine substrate. The plate read is then calibrated using the control, and read using a Molecular Devices SpectraMax iD5, providing luminescence in relative light units (RLU). The plate reader injected 20 μL of the 50 μM Coelenterizine substrate immediately before taking the RLU measurement for each well.
The sample signals were then normalized to the average signal of the DMSO column, as well as to the maximum signal of one of the reference compounds, as shown in the equations below: […]
The EC50 of each compound is then defined as when the concentration response curve passes 0.5.
(In general: A reporter such as luciferase makes a cellular process visible.)
On to `C#CCCN1C(=O)c2oc3ccccc3c2OC[C@@]1(C)C(=O)NCc1ccccc1OC` [Example 138], for which the “Bioactivity Bucket, S” value was “inactive”.

The experiment is the same for the next values; noted with them: Homo sapiens, Endothelial cell, 24 h, KLF2 promoter luciferase, 24 hours, 11-point concentration response; read-out: Activity Range (EC50).
As to `COc1cccnc1CNC(=O)C1(C)COc2c(oc3cc(C(=O)NC4CCC4)ccc23)C(=O)N1CC1CC1` (stereo not drawn) [Example 53], the pEC50 was 6.30 to 7.29. On the same count and under the same terms, for `COCCN1C(=O)c2oc3ccccc3c2OCC1(C)C(=O)NCc1ncccc1OC` (stereo not drawn) [Example 47] the value was 5.30 to 6.30; for `COCCN1C(=O)c2oc3cc(C(=O)NC4CCC4)ccc3c2OCC1(C)C(=O)NCc1cc(F)ccc1OC` (stereo not drawn) [Example 75], 6.30 to 7.29; for `COc1cccnc1CNC(=O)[C@@]1(C)COc2c(oc3cc(-c4nc(C(F)(F)F)cs4)ccc23)C(=O)N1CC(=O)N(C)C` [Example 128], no less than 7.30.

Consider `COCCN1C(=O)c2oc3cc(C(=O)NC4CCC4)ccc3c2OC[C@]1(C)C(=O)NCc1c(F)cccc1OC` [Example 94], for which the pEC50 is no less than 7.30. `COc1cccc(C#N)c1CNC(=O)C1(C)COc2c(oc3cc(C(=O)NC4(C)COC4)ccc23)C(=O)N1[C@H]1C[C@@H](OC)C1` (stereo partly drawn) [Example 55]: the pEC50 is 6.30 to 7.29. Take `COCCN1C(=O)c2oc3ccccc3c2OCC1(C)C(=O)NCc1c(F)cccc1OC` (stereo not drawn) [Example 37]: the pEC50 is 5.30 to 6.30.

Regarding `COc1cc(F)ccc1CNC(=O)C1(C)COc2c(oc3cc(C(=O)NC4CCC4)ccc23)C(=O)N1CC1CC1` (stereo not drawn) [Example 72], the pEC50 is 6.30 to 7.29. For `COCCN1C(=O)c2oc3ccccc3c2OCC1(C)C(=O)NCc1c(OC)cccc1C(=O)OC` (stereo not drawn) [Example 27], the pEC50 is 5.30 to 6.30.

Regarding `COc1cc(F)ccc1CNC(=O)C1(C)COc2c(oc3cc(C(=O)NC4(C)COC4)ccc23)C(=O)N1CC1CC1` (stereo not drawn) [Example 59], the pEC50 was 6.30 to 7.29. Regarding `COc1cccnc1CNC(=O)[C@@]1(C)COc2c(oc3ccc(F)cc23)C(=O)N1CC(=O)N1CC(F)(F)C1` [Example 116], the pEC50 is 6.30 to 7.29. In the case of `COCCN1C(=O)c2oc3ccccc3c2OCC1(C)C(=O)NCc1c(OC)ccc2cnccc12` (stereo not drawn) [Example 19], the pEC50 was 5.30 to 6.30. As for `COCCN1C(=O)c2oc3ccccc3c2OCC1(C)C(=O)NCc1ccc2ccccc2c1OC` (stereo not drawn) [Example 41], the pEC50 was 5.30 to 6.30.

`COCCN1C(=O)c2oc3ccccc3c2OCC1(C)C(=O)NCc1c(OC)ccc(F)c1Cl` (stereo not drawn) [Example 17]: the pEC50 was 5.30 to 6.30. On to `COc1cccc(F)c1CNC(=O)C1(C)COc2c(oc3ccc(C(F)(F)F)cc23)C(=O)N1CC(=O)N(C)C` (stereo not drawn) [Example 131, 4-(2-(dimethylamino)-2-oxoethyl)-N-(2-fluoro-6-methoxybenzyl)-3-methyl-5-oxo-9-(trifluoromethyl)-2,3,4,5-tetrahydrobenzofuro[2,3-f][1,4]oxazepine-3-carboxamide], for which the pEC50 was 6.30 to 7.29. As for `COc1cccnc1CNC(=O)[C@@]1(C)COc2c(oc3ccc(F)cc23)C(=O)N1CC(=O)N1CC(F)C1` [Example 115], the pEC50 is 6.30 to 7.29. With `CC=C1CC(N2C(=O)c3oc4ccccc4c3OCC2(C)C(=O)NCc2ccccc2OC)C1` (racemic) [Example 15], the pEC50 was 5.30 to 6.30. For the compound `COCCN1C(=O)c2oc3ccccc3c2OCC1(C)C(=O)NCc1cc(Cl)ccc1OC` (stereo not drawn) [Example 23], the pEC50 was 5.30 to 6.30.

With `C=C(C)c1ccc2c3c(oc2c1)C(=O)N(CCOC)C(C)(C(=O)NCc1ccccc1OC)CO3` (stereo not drawn) [Example 96], the pEC50 is 5.30 to 6.30.

Consider `COc1cccc(F)c1CNC(=O)C1(C)COc2c(oc3ccc(F)cc23)C(=O)N1CC(=O)N(C)C` (stereo not drawn) [Example 112, 4-(2-(dimethylamino)-2-oxoethyl)-9-fluoro-N-(2-fluoro-6-methoxybenzyl)-3-methyl-5-oxo-2,3,4,5-tetrahydrobenzofuro[2,3-f][1,4]oxazepine-3-carboxamide], for which the pEC50 was 6.30 to 7.29. For the compound `COCCN1C(=O)c2oc3ccccc3c2OCC1(C)C(=O)NCc1c(OC)ccc2ccncc12` (stereo not drawn) [Example 30], the pEC50 is 5.30 to 6.30. Consider `COc1cccc(Cl)c1CNC(=O)C1(C)COc2c(oc3cc(C(=O)NC4(C)COC4)ccc23)C(=O)N1[C@H]1C[C@@H](OC)C1` (stereo partly drawn) [Example 85], for which the pEC50 is no less than 7.30. On to `[2H]C([2H])([2H])N(C(=O)CN1C(=O)c2oc3cc(-c4ncco4)ccc3c2OC[C@]1(C)C(=O)NCc1ncccc1OC)C([2H])([2H])[2H]` [Example 127], for which the pEC50 is no less than 7.30. Regarding `COc1ccc(F)cc1CNC(=O)C1(C)COc2c(oc3cc(C(=O)NC4CCC4)ccc23)C(=O)N1[C@H]1C[C@H](OC)C1` (stereo partly drawn) [Example 80], the pEC50 was 5.30 to 6.30. As to `COCCN1C(=O)c2oc3cc(C(=O)NC4CCC4)ccc3c2OCC1(C)C(=O)NCc1ccc(F)cc1OC` (stereo not drawn) [Example 77], the pEC50 is 6.30 to 7.29.

Take `COc1ccccc1CNC(=O)C1(C)COc2c(oc3ccc(F)cc23)C(=O)N1CC(=O)C1CC1` (stereo not drawn) [Example 113, 4-(2-cyclopropyl-2-oxoethyl)-9-fluoro-N-(2-methoxybenzyl)-3-methyl-5-oxo-2,3,4,5-tetrahydrobenzofuro[2,3-f][1,4]oxazepine-3-carboxamide]: the pEC50 is 6.30 to 7.29.

In the case of `COc1cccc(C#N)c1CNC(=O)C1(C)COc2c(oc3cc(C(=O)NC4CCC4)ccc23)C(=O)N1[C@H]1C[C@@H](OC)C1` (stereo partly drawn) [Example 56], the pEC50 is 6.30 to 7.29. On the same count and under the same terms, the figure for `COc1cc(F)ccc1CNC(=O)C1(C)COc2c(oc3cc(C(=O)NC4(C)COC4)ccc23)C(=O)N1[C@H]1C[C@@H](OC)C1` (stereo partly drawn) [Example 69] is 6.30 to 7.29.

In the case of `COc1cccc(F)c1CNC(=O)[C@@]1(C)COc2c(oc3ccc(Cl)cc23)C(=O)N1CC(=O)N(C)C` (single isomer, unassigned) [Example 107], the pEC50 was 6.30 to 7.29.

`COc1cccc(F)c1CNC(=O)[C@@]1(C)COc2c(oc3ccc(F)cc23)C(=O)N1Cc1nnn(CCO)n1` [Example 118]: the pEC50 was 6.30 to 7.29. `COc1cccc(F)c1CNC(=O)C1(C)COc2c(oc3ccc(C)cc23)C(=O)N1CC(=O)N(C)C` (stereo not drawn) [Example 133, 4-(2-(dimethylamino)-2-oxoethyl)-N-(2-fluoro-6-methoxybenzyl)-3,9-dimethyl-5-oxo-2,3,4,5-tetrahydrobenzofuro[2,3-f][1,4]oxazepine-3-carboxamide]: the pEC50 was 6.30 to 7.29.

On to `COc1cccnc1CNC(=O)[C@@]1(C)COc2c(oc3ccc(F)cc23)C(=O)N1Cc1cn(CCO)nn1` [Example 120, (R)-9-fluoro-4-((1-(2-hydroxyethyl)-1H-1,2,3-triazol-4-yl)methyl)-N-((3-methoxypyridin-2-yl)methyl)-3-methyl-5-oxo-2,3,4,5-tetrahydrobenzofuro[2,3-f][1,4]oxazepine-3-carboxamide], for which the pEC50 is 6.30 to 7.29. Take `COCCN1C(=O)c2oc3cc(-c4cncs4)ccc3c2OCC1(C)C(=O)NCc1ccccc1OC` (stereo not drawn) [Example 100]: the pEC50 is 6.30 to 7.29. Still for that read-out and setting: for `COCCN1C(=O)c2oc3cc(C(=O)NC4CCC4)ccc3c2OC[C@]1(C)C(=O)NCc1ccccc1OC` [Example 50, (R)—N8-cyclobutyl-N3-(2-methoxybenzyl)-4-(2-methoxyethyl)-3-methyl-5-oxo-2,3,4,5-tetrahydrobenzofuro[2,3-f][1,4]oxazepine-3,8-dicarboxamide] the value was 6.30 to 7.29. In the case of `COc1ccc(F)cc1CNC(=O)C1(C)COc2c(oc3cc(C(=O)NC4CCC4)ccc23)C(=O)N1[C@H]1C[C@@H](OC)C1` (stereo partly drawn) [Example 73], the pEC50 is 6.30 to 7.29.

The experiment is the same for the next values; noted with them: Homo sapiens, Endothelial cell, Bioactivity of stereoisomers: R isomer; read-out: Bioactivity Bucket, R.
Take `COc1cccc(F)c1CNC(=O)[C@@]1(C)COc2c(oc3ccc(Cl)cc23)C(=O)N1CC(=O)N(C)C` (single isomer, unassigned) [Example 107]: the pEC50 was 6.30 to 7.29.

Turning to `COCCN1C(=O)c2oc3cc(C(=O)NC4CCC4)ccc3c2OC[C@]1(C)C(=O)NCc1ccccc1OC` [Example 50, (R)—N8-cyclobutyl-N3-(2-methoxybenzyl)-4-(2-methoxyethyl)-3-methyl-5-oxo-2,3,4,5-tetrahydrobenzofuro[2,3-f][1,4]oxazepine-3,8-dicarboxamide], the pEC50 is no less than 7.30.

Still in this experiment, the particulars now being: Homo sapiens, Endothelial cell, Bioactivity of stereoisomers: racemate; read-out: Bioactivity Bucket, Racemate.
On to `CC=C1CC(N2C(=O)c3oc4ccccc4c3OCC2(C)C(=O)NCc2ccccc2OC)C1` (racemic) [Example 15], for which the pEC50 is 5.30 to 6.30.

(Values after patent US20250171460A1, “INDUCERS OF KLF2 AND METHODS OF USE THEREOF” (Riparian Pharmaceuticals, Inc., priority 2022, published 2025).)
